These are literature values, as cited in the PKSmart pharmacokinetics tables (Seal et al. 2025).

Broadly, the MRT is the average time that molecules of a dose stay in the body. The term Vd denotes the apparent volume that relates the amount in the body to the concentration in plasma or blood. For orientation: clearance means the rate of elimination divided by the concentration. Usually half-life stands for the time needed for the level to fall by half in the phase considered. For orientation: fraction unbound means the share of the substance not bound to proteins or other matrix.

This data set in a line: Lombardo, Berellini, Obach 2018, Drug Metab Dispos 46:1466, doi 10.1124/dmd.118.082966. The conditions noted are these: human; for MRT / Vd / clearance / half-life: in vivo, iv; for fraction unbound: plasma.

Regarding `CCCCc1oc2ccc(NS(C)(=O)=O)cc2c1C(=O)c1ccc(OCCCN(CCCC)CCCC)cc1`, the MRT is 10 h, the Vd was 20 L/kg, the clearance is 2 L/h/kg and the half-life was 16 h. The fraction unbound was 0.02.
With `NS(=O)(=O)c1ccc(S(=O)(=O)Nc2cccc3c(Cl)c[nH]c23)cc1`, the MRT is 16.9 h, the Vd is 0.68 L/kg, the clearance was 0.0432 L/h/kg and the half-life was 20.3 h. The fraction unbound was 0.001.
Take `C=C1C[C@@H]2CC[C@@]34C[C@H]5O[C@H]6[C@@H](O3)[C@H]3O[C@H](CC[C@@H]3O[C@H]6[C@H]5O4)CC(=O)O[C@@H]3[C@@H](OC)[C@@H](C[C@H](O)CN)O[C@H]3C[C@H]3O[C@@H](CC[C@@H]1O2)C[C@@H](C)C3=C`: the mean residence time MRT was 32.5 h, the Vd is 1.46 L/kg, the clearance is 0.045 L/h/kg and the half-life was 37.8 h. The fraction unbound was 0.43.
Regarding `CN(C)CCN1C(=O)c2cccc3cc(N)cc(c23)C1=O`, the MRT was 6.34 h, the Vd was 7.33 L/kg, the clearance is 1.16 L/h/kg and the half-life is 4.78 h.
With `NC(O)=NO`, the MRT was 4.8 h, the Vd was 0.52 L/kg, the clearance is 0.09 L/h/kg and the half-life was 3.4 h.
As to `C[C@@H](NCCCc1cccc(C(F)(F)F)c1)c1cccc2ccccc12`, the MRT was 16 h, the Vd is 17.6 L/kg, the clearance was 1.1 L/h/kg and the half-life is 19.9 h. The fraction unbound was 0.05.
As to `CC(=O)OCC1=C(C(=O)O)N2C(=O)C(NC(=O)CSc3ccncc3)[C@H]2SC1` (some centres undefined), the MRT was 0.8 h, the Vd was 0.13 L/kg, the clearance was 0.162 L/h/kg and the half-life is 1.2 h. Besides, the fraction unbound is 0.55.
On to `NCCCCCC(=O)O`, for which the MRT was 2.6 h, the Vd was 0.39 L/kg, the clearance was 0.15 L/h/kg and the half-life is 4.9 h. The unbound share (fraction unbound) is 0.92.
Regarding `COc1ccccc1OC[C@H](O)CN1CCN(CC(=O)Nc2c(C)cccc2C)CC1`, the MRT was 2.1 h, the Vd was 1.2 L/kg, the clearance was 0.57 L/h/kg and the half-life was 1.8 h. The fraction unbound is 0.38.
In the case of `COc1ccc2c(c1)N(C[C@H](C)CN(C)C)c1ccccc1S2`, the mean residence time (MRT) is 21 h, the Vd is 12 L/kg, the clearance was 0.594 L/h/kg and the half-life was 30 h.
Regarding `CCCNc1nc(NCCC)nc(N(C)OC)n1`, the MRT was 3.04 h, the Vd is 2.17 L/kg, the clearance was 0.714 L/h/kg and the half-life was 5.61 h.
Consider `Cc1ccc(C(CN)CC(=O)O)cc1` (centres undefined), for which the MRT is 6.36 h, the Vd is 0.65 L/kg, the clearance was 0.102 L/h/kg and the half-life is 5.24 h. In addition, the fraction unbound is 0.69.
On to `Cn1nnc(-c2ccc(-c3ccc(N4C[C@H](CO)OC4=O)cc3F)cn2)n1`, for which the MRT was 12.6 h, the volume of distribution (Vd) was 0.91 L/kg, the clearance is 0.0714 L/h/kg and the half-life was 10.2 h. For the same molecule, the fraction unbound is 0.11.
As for `C[C@H]1O[C@H](O[C@H]2[C@H](O)[C@@H](O)[C@@H](OC(C(=O)C(O)CO)[C@H](O)CO)O[C@@H]2CO)[C@H](O)[C@@H](O)[C@@H]1N[C@H]1C=C(CO)[C@@H](O)[C@H](O)[C@H]1O` (some centres undefined), the MRT is 2.4 h, the Vd is 0.32 L/kg, the clearance is 0.132 L/h/kg and the half-life is 2.7 h.
For the molecule `CC(C)=CCN1Cc2cc(Cl)cc3[nH]c(=S)n(c23)C[C@@H]1C`, the MRT is 35.2 h, the Vd was 22 L/kg, the clearance was 0.625 L/h/kg and the half-life was 26 h.
In the case of `CCn1cc(C(=O)O)c(=O)c2cnc(N3CCNCC3)nc21`, the MRT was 5.15 h, the volume of distribution (Vd) is 0.88 L/kg, the clearance is 0.17 L/h/kg and the half-life is 3.69 h. Besides, the fraction unbound was 0.7.
On to `CC#C[C@]1(O)CC[C@H]2C3=C(C4=C(CC3)CC(=O)CC4)C(c3ccc(N(C)C)cc3)C[C@@]21C` (some centres undefined), for which the mean residence time (MRT) was 15.7 h, the volume of distribution (Vd) was 0.45 L/kg, the clearance was 0.03 L/h/kg and the half-life is 16.6 h. Further, the fraction unbound was 0.02.
For `CC(C)CC(NC(=O)C(CCc1ccccc1)NC(=O)CN1CCOCC1)C(=O)NC(Cc1ccccc1)C(=O)NC(CC(C)C)C(=O)[C@@]1(C)CO1` (some centres undefined), the MRT was 0.05 h, the Vd is 0.13 L/kg, the clearance is 2.37 L/h/kg and the half-life was 1.1 h. For the same molecule, the free fraction (fraction unbound) is 0.02.
As to `Nc1nc(CC(=O)Nc2ccc(CCNC[C@H](O)c3ccccc3)cc2)cs1`, the MRT is 29.3 h, the Vd is 23.8 L/kg, the clearance was 0.816 L/h/kg and the half-life was 50 h. Also, the fraction unbound is 0.29.
With `N#Cc1ccc2c(c1)CN(S(=O)(=O)c1cccs1)[C@H](Cc1ccccc1)CN2Cc1cnc[nH]1`, the mean residence time MRT is 1.4 h, the Vd is 0.84 L/kg, the clearance is 0.576 L/h/kg and the half-life was 1.6 h. The fraction unbound is 0.01.
Consider `CCCCCCCCCCCCCCC[C@@H](O)[C@H](C)N`, for which the MRT is 8.89 h, the Vd was 30.7 L/kg, the clearance is 3.46 L/h/kg and the half-life is 29.7 h.
For `CCC[C@H](Nc1nc(-c2ccc(NC(=O)NCC)c(OC)c2)ncc1C)c1cccnc1`, the MRT is 2.5 h, the volume of distribution (Vd) was 3.41 L/kg, the clearance is 1.33 L/h/kg and the half-life is 2.9 h.
Consider `CCc1cnn2c(NCc3ccc[n+]([O-])c3)cc(N3CCCC[C@H]3CCO)nc12`, for which the mean residence time MRT is 1.1 h, the Vd is 0.32 L/kg, the clearance is 0.279 L/h/kg and the half-life is 2.1 h.
On to `CCc1cc2c(cc1CC)CC(NC[C@H](O)c1ccc(O)c3[nH]c(=O)ccc13)C2`, for which the MRT was 72.4 h, the Vd was 19.4 L/kg, the clearance was 0.269 L/h/kg and the half-life is 92.5 h.
Consider `COc1ccc(CC(C)(C)NC[C@H](O)c2cc(O)cc3c2OCC(=O)N3)cc1`, for which the MRT was 22.2 h, the Vd was 15.8 L/kg, the clearance was 0.747 L/h/kg and the half-life was 22.1 h. Further, the fraction unbound was 0.4.
Regarding `C[C@H]1CN(CC(Cc2ccccc2)C(=O)NCC(=O)O)CC[C@@]1(C)c1cccc(O)c1` (some centres undefined), the MRT was 1.24 h, the Vd is 0.43 L/kg, the clearance is 0.35 L/h/kg and the half-life was 5.3 h. Further, the fraction unbound is 0.2.
Take `CC(C)(C)NCC(O)COc1cccc2c1CC(O)C(O)C2` (centres undefined): the MRT is 11 h, the Vd was 1.9 L/kg, the clearance was 0.174 L/h/kg and the half-life was 9.2 h. The fraction unbound was 0.14.
In the case of `NC[C@H]1OB(O)c2c(OCCCO)cccc21`, the mean residence time (MRT) is 9.6 h, the Vd was 2.37 L/kg, the clearance was 0.246 L/h/kg and the half-life is 11.6 h.
As for `Cc1nccn1CCC(C(N)=O)(c1ccccc1)c1ccccc1`, the MRT is 4.1 h, the volume of distribution (Vd) was 1.51 L/kg, the clearance was 0.366 L/h/kg and the half-life was 3.2 h. Further, the fraction unbound is 0.12.
